{
  "source": "paper PMC5218480",
  "about": "(PLoS ONE, 2017)",
  "tested_on": "MV-4-11 cells",
  "test": "Gene expression microarray analysis (Affymetrix PrimeView) and GSEA",
  "type": "cell-based, human",
  "parameters": "RFU PODN (11730768_x_at) / Fold change /veh PODN (11730768_x_at) / RFU LINC00158 (11744669_a_at) / Fold change /veh LINC00158 (11744669_a_at) / RFU DUSP10 (11751237_a_at) / Fold change /veh DUSP10 (11751237_a_at) / RFU ID3 (11757404_x_at) / Fold change /veh ID3 (11757404_x_at) / RFU PLEKHG5 (11737974_s_at) / Fold change /veh PLEKHG5 (11737974_s_at) / RFU LRRC4B (11730491_at) / Fold change /veh LRRC4B (11730491_at) / RFU GIMAP4 (11747438_a_at) / Fold change /veh GIMAP4 (11747438_a_at) / RFU KRT8 (11758183_x_at) / Fold change /veh KRT8 (11758183_x_at) / RFU CNN1 (11734310_a_at) / Fold change /veh CNN1 (11734310_a_at) / RFU VPS37D (11726825_at) / Fold change /veh VPS37D (11726825_at) / RFU C10orf10 (11716522_x_at) / Fold change /veh C10orf10 (11716522_x_at) / RFU KIR2DL2 /// KIR2DL4 /// KIR2DL5A /// KIR2DL5B /// KIR2DS1 /// KIR2DS2 /// KIR2DS3 /// KIR2DS4 /// KIR3DL3 /// KIR3DL3 /// KIR3DS1 (11738374_at) / Fold change /veh KIR2DL2 /// KIR2DL4 /// KIR2DL5A /// KIR2DL5B /// KIR2DS1 /// KIR2DS2 /// KIR2DS3 /// KIR2DS4 /// KIR3DL3 /// KIR3DL3 /// KIR3DS1 (11738374_at) / RFU C1QL1 (11718748_at) / Fold change /veh C1QL1 (11718748_at) / RFU TMPRSS4 (11747572_a_at) / Fold change /veh TMPRSS4 (11747572_a_at) / RFU HAMP (11756126_x_at) / Fold change /veh HAMP (11756126_x_at) / RFU RNFT2 (11725882_a_at) / Fold change /veh RNFT2 (11725882_a_at) / RFU NR4A2 (11747474_a_at) / Fold change /veh NR4A2 (11747474_a_at) / RFU ABCC12 (11746883_a_at) / Fold change /veh ABCC12 (11746883_a_at) / RFU TMEM136 (11760407_x_at) / Fold change /veh TMEM136 (11760407_x_at) / RFU CLDN22 /// WWC2 (11732394_at) / Fold change /veh CLDN22 /// WWC2 (11732394_at) / RFU HLA-DPB1 (11760878_x_at) / Fold change /veh HLA-DPB1 (11760878_x_at) / RFU SPINT1 (11716480_a_at) / Fold change /veh SPINT1 (11716480_a_at) / RFU GAP43 (11754022_s_at) / Fold change /veh GAP43 (11754022_s_at) / RFU A4GNT (11735810_at) / Fold change /veh A4GNT (11735810_at) / RFU PRB3 (11715151_x_at) / Fold change /veh PRB3 (11715151_x_at) / RFU TUBB4B (11761932_at) / Fold change /veh TUBB4B (11761932_at) / RFU CAPN14 (11732068_a_at) / Fold change /veh CAPN14 (11732068_a_at) / RFU TMCC2 (11721928_a_at) / Fold change /veh TMCC2 (11721928_a_at) / RFU IRGQ (11745062_a_at) / Fold change /veh IRGQ (11745062_a_at) / RFU FAM174B (11720279_a_at) / Fold change /veh FAM174B (11720279_a_at) / RFU TMPRSS4 (11748680_a_at) / Fold change /veh TMPRSS4 (11748680_a_at) / RFU FAM212B (11763350_a_at) / Fold change /veh FAM212B (11763350_a_at) / RFU PLEKHG5 (11743358_a_at) / Fold change /veh PLEKHG5 (11743358_a_at) / RFU ZSCAN30 (11745921_a_at) / Fold change /veh ZSCAN30 (11745921_a_at) / RFU CMKLR1 (11741424_a_at) / Fold change /veh CMKLR1 (11741424_a_at) / RFU LOC101060620 /// MAPK8IP1 (11723275_at) / Fold change /veh LOC101060620 /// MAPK8IP1 (11723275_at) / RFU SPTSSB (11747773_x_at) / Fold change /veh SPTSSB (11747773_x_at) / RFU PRSS12 (11739890_at) / Fold change /veh PRSS12 (11739890_at) / RFU BIN1 (11741810_x_at) / Fold change /veh BIN1 (11741810_x_at) / RFU WNT11 (11732464_a_at) / Fold change /veh WNT11 (11732464_a_at) / RFU C10orf10 (11716521_a_at) / Fold change /veh C10orf10 (11716521_a_at) / RFU C5orf56 (11738089_at) / Fold change /veh C5orf56 (11738089_at) / RFU CYB561 (11721691_x_at) / Fold change /veh CYB561 (11721691_x_at) / RFU ANKRD19P (11752326_a_at) / Fold change /veh ANKRD19P (11752326_a_at) / RFU OR2T12 /// OR2T33 /// OR2T8 (11738714_s_at) / Fold change /veh OR2T12 /// OR2T33 /// OR2T8 (11738714_s_at) / RFU VCAN (11748164_a_at) / Fold change /veh VCAN (11748164_a_at) / RFU JSRP1 (11732532_at) / Fold change /veh JSRP1 (11732532_at) / RFU KRTAP10-11 (11738290_x_at) / Fold change /veh KRTAP10-11 (11738290_x_at) / RFU MYO3A (11730013_a_at) / Fold change /veh MYO3A (11730013_a_at) / RFU EBF3 (11725865_a_at) / Fold change /veh EBF3 (11725865_a_at) / RFU CAMK2N1 (11719241_x_at) / Fold change /veh CAMK2N1 (11719241_x_at) / RFU C5orf56 (11738088_a_at) / Fold change /veh C5orf56 (11738088_a_at) / RFU OLFML3 (11715873_a_at) / Fold change /veh OLFML3 (11715873_a_at) / RFU LOC100653217 /// NTM (11731650_a_at) / Fold change /veh LOC100653217 /// NTM (11731650_a_at) / RFU MAPK11 (11762145_a_at) / Fold change /veh MAPK11 (11762145_a_at) / RFU FIZ1 (11724087_x_at) / Fold change /veh FIZ1 (11724087_x_at) / RFU OASL (11726364_x_at) / Fold change /veh OASL (11726364_x_at) / RFU SOX15 (11748057_x_at) / Fold change /veh SOX15 (11748057_x_at) / RFU CD79A (11719716_a_at) / Fold change /veh CD79A (11719716_a_at) / RFU HIST1H1D (11736915_at) / Fold change /veh HIST1H1D (11736915_at) / RFU CASKIN2 (11723855_a_at) / Fold change /veh CASKIN2 (11723855_a_at) / RFU LOC730098 (11760151_x_at) / Fold change /veh LOC730098 (11760151_x_at) / RFU OR4N2 (11742367_at) / Fold change /veh OR4N2 (11742367_at) / RFU PRRT2 (11749266_a_at) / Fold change /veh PRRT2 (11749266_a_at) / RFU SNX32 (11753110_a_at) / Fold change /veh SNX32 (11753110_a_at) / RFU CDHR5 (11726645_a_at) / Fold change /veh CDHR5 (11726645_a_at) / RFU RCAN1 (11760418_a_at) / Fold change /veh RCAN1 (11760418_a_at) / RFU FAM167A (11723789_a_at) / Fold change /veh FAM167A (11723789_a_at) / RFU FAM26E (11764081_at) / Fold change /veh FAM26E (11764081_at) / RFU ISYNA1 (11749810_s_at) / Fold change /veh ISYNA1 (11749810_s_at) / RFU ACY1 (11761880_at) / Fold change /veh ACY1 (11761880_at) / RFU 11764098_at / Fold change /veh 11764098_at / RFU SAMD14 (11745864_x_at) / Fold change /veh SAMD14 (11745864_x_at) / RFU NPB (11741838_a_at) / Fold change /veh NPB (11741838_a_at) / RFU TMPRSS6 (11731388_a_at) / Fold change /veh TMPRSS6 (11731388_a_at) / RFU KRTAP10-2 (11738614_at) / Fold change /veh KRTAP10-2 (11738614_at) / RFU ARHGAP8 /// PRR5-ARHGAP8 (11727945_x_at) / Fold change /veh ARHGAP8 /// PRR5-ARHGAP8 (11727945_x_at) / RFU KRTAP5-7 /// NADSYN1 (11734609_at) / Fold change /veh KRTAP5-7 /// NADSYN1 (11734609_at) / RFU RASL12 (11751679_a_at) / Fold change /veh RASL12 (11751679_a_at) / RFU CDKN2B (11736163_a_at) / Fold change /veh CDKN2B (11736163_a_at) / RFU PRF1 (11729649_at) / Fold change /veh PRF1 (11729649_at) / RFU, ZNF638 /// ZNF638-IT1 / Fold change vs veh, ZNF638 /// ZNF638-IT1 / RFU, PANK3 / Fold change vs veh, PANK3 / RFU, SH3YL1 / Fold change vs veh, SH3YL1 / RFU, ZEB2 / Fold change vs veh, ZEB2 / RFU, NRIP1 / Fold change vs veh, NRIP1 / RFU, PTTG1IP / Fold change vs veh, PTTG1IP / RFU, CAPN2 / Fold change vs veh, CAPN2 / RFU, MED14 / Fold change vs veh, MED14 / RFU, SNORA58 / Fold change vs veh, SNORA58 / RFU, C1orf63 / Fold change vs veh, C1orf63 / RFU, LRRFIP1 / Fold change vs veh, LRRFIP1 / RFU, NDUFAF7 / Fold change vs veh, NDUFAF7 / RFU, SLC12A2 / Fold change vs veh, SLC12A2 / RFU, IBTK / Fold change vs veh, IBTK / RFU, ESF1 / Fold change vs veh, ESF1 / Fold change vs veh, TMEM50B / RFU, TAOK1 / Fold change vs veh, TAOK1 / RFU, ACBD3 / Fold change vs veh, ACBD3 / RFU, TMA16 / Fold change vs veh, TMA16 / RFU, RWDD3 / Fold change vs veh, RWDD3 / RFU, BCAT1 / Fold change vs veh, BCAT1 / RFU, EDEM3 / Fold change vs veh, EDEM3 / RFU, TMEM33 / Fold change vs veh, TMEM33 / RFU, WDR75 / Fold change vs veh, WDR75 / RFU, AHCTF1 / Fold change vs veh, AHCTF1 / RFU, TFRC / Fold change vs veh, TFRC / RFU, ZDHHC17 / Fold change vs veh, ZDHHC17 / RFU, NOM1 / Fold change vs veh, NOM1 / RFU, ARL8B / Fold change vs veh, ARL8B / RFU, ZBTB11 / Fold change vs veh, ZBTB11 / RFU, TAMM41 / Fold change vs veh, TAMM41 / RFU, KIAA1704 /// LOC100996395 / Fold change vs veh, KIAA1704 /// LOC100996395 / RFU, ING1 / Fold change vs veh, ING1 / RFU, TRMT61B / Fold change vs veh, TRMT61B / RFU, FUBP3 / Fold change vs veh, FUBP3 / RFU, TP53 / Fold change vs veh, TP53 / RFU, TNKS2 / Fold change vs veh, TNKS2 / RFU, ZFP14 / Fold change vs veh, ZFP14 / RFU, ACTR2 / Fold change vs veh, ACTR2 / RFU, PPP3R1 / Fold change vs veh, PPP3R1 / RFU, PIK3R1 / Fold change vs veh, PIK3R1 / RFU, HNRNPA1 / Fold change vs veh, HNRNPA1 / RFU, RNF170 / Fold change vs veh, RNF170 / RFU, ZNF28 / Fold change vs veh, ZNF28 / RFU, RNGTT / Fold change vs veh, RNGTT / RFU, OGT / Fold change vs veh, OGT / RFU, BRD1 / Fold change vs veh, BRD1 / RFU, MARS / Fold change vs veh, MARS / RFU, ZNF655 / Fold change vs veh, ZNF655 / RFU, FAHD1 / Fold change vs veh, FAHD1 / RFU, BDP1 / Fold change vs veh, BDP1 / RFU, LRRCC1 / Fold change vs veh, LRRCC1 / RFU, ARID1A / Fold change vs veh, ARID1A / RFU, ZNF146 / Fold change vs veh, ZNF146 / RFU, ZNF330 / Fold change vs veh, ZNF330 / RFU, GPN3 / Fold change vs veh, GPN3 / RFU, C9orf123 / Fold change vs veh, C9orf123 / RFU, N4BP2L2 / Fold change vs veh, N4BP2L2 / RFU, ARFIP1 / Fold change vs veh, ARFIP1 / RFU, FAM179B / Fold change vs veh, FAM179B / RFU, BCL10 / Fold change vs veh, BCL10 / RFU, UHRF1BP1L / Fold change vs veh, UHRF1BP1L / RFU, BET1 / Fold change vs veh, BET1 / RFU, CNOT2 / Fold change vs veh, CNOT2 / RFU, ZNF268 / Fold change vs veh, ZNF268 / Fold change vs veh, ZNF507 / RFU, DGCR2 / Fold change vs veh, DGCR2 / RFU, WDSUB1 / Fold change vs veh, WDSUB1 / Fold change vs veh, HSP90B1 /// MIR3652 / RFU, ADSS / Fold change vs veh, ADSS / RFU, GK / Fold change vs veh, GK / RFU, ZNF148 / Fold change vs veh, ZNF148 / RFU, TAF9 / Fold change vs veh, TAF9 / RFU, SLC1A5 / Fold change vs veh, SLC1A5 / RFU, SLMO2 / Fold change vs veh, SLMO2 / RFU, ABCC4 / Fold change vs veh, ABCC4 / RFU, LOC101060439 /// RAP1B / Fold change vs veh, LOC101060439 /// RAP1B / RFU, RFX7 / Fold change vs veh, RFX7 / RFU, GTPBP10 / Fold change vs veh, GTPBP10 / RFU, CNEP1R1 / Fold change vs veh, CNEP1R1 / RFU, BIVM-ERCC5 /// ERCC5 / Fold change vs veh, BIVM-ERCC5 /// ERCC5 / RFU, ILF3 / Fold change vs veh, ILF3 / RFU 11762660_at / Fold change /veh 11762660_at / RFU VCAN (11757783_s_at) / Fold change /veh VCAN (11757783_s_at) / RFU DDX43 (11728927_at) / Fold change /veh DDX43 (11728927_at) / RFU KRT8 (11758188_x_at) / Fold change /veh KRT8 (11758188_x_at) / RFU NKD1 (11759106_at) / Fold change /veh NKD1 (11759106_at) / RFU SRD5A1 (11742802_a_at) / Fold change /veh SRD5A1 (11742802_a_at) / RFU TPSAB1 /// TPSB2 (11721975_s_at) / Fold change /veh TPSAB1 /// TPSB2 (11721975_s_at) / RFU GSTM3 (11746129_a_at) / Fold change /veh GSTM3 (11746129_a_at) / RFU IL23R (11737362_x_at) / Fold change /veh IL23R (11737362_x_at) / RFU TMEM51 (11727254_a_at) / Fold change /veh TMEM51 (11727254_a_at) / RFU PIWIL2 (11732686_x_at) / Fold change /veh PIWIL2 (11732686_x_at) / RFU ORM1 (11744905_x_at) / Fold change /veh ORM1 (11744905_x_at) / RFU CCDC152 (11743942_at) / Fold change /veh CCDC152 (11743942_at) / RFU ECM1 (11717891_a_at) / Fold change /veh ECM1 (11717891_a_at) / RFU IL23R (11748794_a_at) / Fold change /veh IL23R (11748794_a_at) / RFU TNFAIP8L3 (11732012_x_at) / Fold change /veh TNFAIP8L3 (11732012_x_at) / RFU MBOAT4 (11741988_at) / Fold change /veh MBOAT4 (11741988_at) / RFU 11764193_at / Fold change /veh 11764193_at / RFU TMEM53 (11763286_at) / Fold change /veh TMEM53 (11763286_at) / RFU MAGEB2 (11727129_at) / Fold change /veh MAGEB2 (11727129_at) / RFU TMEM200A (11744735_a_at) / Fold change /veh TMEM200A (11744735_a_at) / RFU CCDC152 (11751479_a_at) / Fold change /veh CCDC152 (11751479_a_at) / RFU FAM211A (11726209_a_at) / Fold change /veh FAM211A (11726209_a_at) / RFU RGS16 (11746705_a_at) / Fold change /veh RGS16 (11746705_a_at) / RFU VCAN (11755009_s_at) / Fold change /veh VCAN (11755009_s_at) / RFU RHOB (11743442_s_at) / Fold change /veh RHOB (11743442_s_at) / RFU RGS16 (11720943_a_at) / Fold change /veh RGS16 (11720943_a_at) / RFU RGS16 (11720944_at) / Fold change /veh RGS16 (11720944_at) / RFU, VPS4B / Fold change vs veh, VPS4B / RFU, CREB1 / Fold change vs veh, CREB1 / RFU, DNAJC13 / Fold change vs veh, DNAJC13 / RFU, GNAQ / Fold change vs veh, GNAQ / RFU, CDK5R1 / Fold change vs veh, CDK5R1 / RFU, ZRANB3 / Fold change vs veh, ZRANB3 / RFU, CUL4A / Fold change vs veh, CUL4A / RFU, CCNY / Fold change vs veh, CCNY / RFU, UFL1 / Fold change vs veh, UFL1 / RFU, COG3 / Fold change vs veh, COG3 / RFU, DIAPH2 / Fold change vs veh, DIAPH2 / RFU, SKA2 / Fold change vs veh, SKA2 / RFU, AFF3 / Fold change vs veh, AFF3 / RFU, LMF1 / Fold change vs veh, LMF1 / RFU, IPO11 / Fold change vs veh, IPO11 / RFU, DFFB / Fold change vs veh, DFFB / RFU, FOXP1 / Fold change vs veh, FOXP1 / RFU, CARD8 / Fold change vs veh, CARD8 / RFU, STRN3 / Fold change vs veh, STRN3 / RFU, ADK / Fold change vs veh, ADK / RFU, RASSF2 / Fold change vs veh, RASSF2 / RFU, WIPF1 / Fold change vs veh, WIPF1 / RFU, LARP1B / Fold change vs veh, LARP1B / RFU, RASA1 / Fold change vs veh, RASA1 / RFU, RB1 / Fold change vs veh, RB1 / RFU, PPFIA1 / Fold change vs veh, PPFIA1 / RFU, MAT2A / Fold change vs veh, MAT2A / RFU, CCT5 / Fold change vs veh, CCT5 / RFU, WDR92 / Fold change vs veh, WDR92 / RFU, CUX1 / Fold change vs veh, CUX1 / RFU, TTC7A / Fold change vs veh, TTC7A / RFU, TMEM135 / Fold change vs veh, TMEM135 / RFU, DEPTOR / Fold change vs veh, DEPTOR / RFU, CPM / Fold change vs veh, CPM / RFU, DNAJB6 / Fold change vs veh, DNAJB6 / RFU, CACNA2D3 / Fold change vs veh, CACNA2D3 / RFU, DTX4 / Fold change vs veh, DTX4 / RFU, TFCP2 / Fold change vs veh, TFCP2 / RFU, GMCL1 /// GMCL1P1 / Fold change vs veh, GMCL1 /// GMCL1P1 / RFU, AEBP2 / Fold change vs veh, AEBP2 / RFU, SNHG1 /// SNORD22 /// SNORD25 /// SNORD26 /// SNORD27 /// SNORD28 /// SNORD29 /// SNORD31 / Fold change vs veh, SNHG1 /// SNORD22 /// SNORD25 /// SNORD26 /// SNORD27 /// SNORD28 /// SNORD29 /// SNORD31 / Fold change (Aza/veh), C12orf56 (ProbeSet 11735607_a_at) / Fold change (ACY-1035/veh), C12orf56 (ProbeSet 11735607_a_at) / Fold change (Aza/veh), FGFR1OP (ProbeSet 11751329_s_at) / Fold change (ACY-1035/veh), FGFR1OP (ProbeSet 11751329_s_at) / Fold change (Aza/veh), VPS36 (ProbeSet 11739960_a_at) / Fold change (ACY-1035/veh), VPS36 (ProbeSet 11739960_a_at) / RFU SYPL1 (11715823_x_at) / Fold change /veh SYPL1 (11715823_x_at) / RFU IGFBP7 (11715501_s_at) / Fold change /veh IGFBP7 (11715501_s_at) / RFU REEP3 (11722064_at) / Fold change /veh REEP3 (11722064_at) / RFU IGLL1 (11728026_x_at) / Fold change /veh IGLL1 (11728026_x_at): dose or concentration left out as unconfirmed",
  "settings": "ProbeSet 11722302_a_at; LIST B",
  "data": [
    {"compound": "Nc1ncn([C@@H]2O[C@H](CO)[C@@H](O)[C@H]2O)c(=O)n1", "note": "[azacitidine]", "values": [
      {"measurement": "Fold change vs veh, LRRFIP1", "result": 0.89}
    ]}
  ]
}
